From patent US10202386B2, “Pyrrolo[3,2-D]pyrimidine derivatives as inducers of human interferon” (GlaxoSmithKline Intellectual Property (No.2) Limited, priority 2014, dated 2019)
Counter-ions that a name gives are not always drawn.

Experiments:
Format in all cases: cell-based
IFN-α [1] = assay: Induction of Interferon-α using fresh human whole blood (WB); settings: three donors, overnight incubation, response as % of 2 μM resiquimod control, read-out: mean pEC50 for IFN-α (converted)
Protocol: (§1) Assay for the Induction of Interferon-α and TNF-α Using Fresh Human Whole Blood (WB)
(§2) Compounds were prepared at 100× required concentration in DMSO in flat-bottom microtitre plates at a volume of 1.5 μL. Columns 1-10 contained a 1 in 4 serial dilution of the test compound. Included on each plate was a serial dilution of the TLR7/8 agonist resiquimod as a standard and Column 11 contained 1.5 μl of 200 μM resiquimod (giving a 2 μM final concentration, used to define the approximate maximal response to resiquimod). Each compound was assayed in duplicate for each donor.
(§3) Blood samples from three human donors were collected into sodium heparin (10 U/ml). 150 μl of whole Blood was dispensed into Col 1 to 11 of assay plates containing 1.5 μl of test compound or standard in DMSO. Plates were placed in an incubator overnight (37° C., 95% air, 5% CO2). Following the overnight incubation, plates were removed from the incubator & mixed on an orbital shaker for approximately 1 minute. 100 μl of 0.9% saline was added to each well and the plates mixed again on an orbital shaker. Plates were then centrifuged (2500 rpm, 10 mins), after which a sample of plasma was removed using a Biomek FX and assayed for both IFN-α and TNF-α using the MSD (Mesoscale Discovery) electrochemiluminescence assay platform. The IFN-α assay was carried out similarly to that described above. The TNF-α assay was carried out as per kit instructions (Cat No K111BHB).
(§4) Cytokine released was expressed as a percentage of the 2 μM resiquimod control (column 11). This percentage was plotted against compound concentration and the pEC50 for the response determined by non-linear least squares curve fitting. For the IFN-α responses, generally a 4 parameter logistic model was selected. For the TNF-α responses where a clear maximum response was obtained (i.e. a well defined plateau in the response was observed) then a 4 parameter model was generally used. If the upper asymptote of the curve wasn't well defined then the curve fitting was generally constrained to a maximal response of 100% (i.e. to the response to 2 μM resiquimod) or to the response of the highest concentration tested if this was greater than the resiquimod response. Some curves were bell shaped for one or both cytokines and the cytokine data on the down slope of the bell shaped response (i.e. concentrations above those giving the maximal response) were generally excluded from the fit, usually with the exception of the concentration immediately above the peak response. Curve fitting thus concentrated on the up slope of the dose response curve.

TNF-α [2] = assay: Induction of TNF-α using fresh human whole blood (WB); settings: three donors, overnight incubation, response as % of 2 μM resiquimod control, read-out: mean pEC50 for TNF-α (converted)
Protocol: as §1, §2, §3, §4

IFN-α [3] = assay: Induction of Interferon-α using fresh human peripheral blood mononuclear cells (PBMCs); settings: PBMC, three donors, 24 hr incubation, response as % of 2 μM resiquimod control, read-out: mean pEC50 for IFN-α (converted)
Protocol: (§5) Assay for the Induction of Interferon-α and TNF-α Using Fresh Human Peripheral Blood Mononuclear Cells (PBMCs)
(§6) Compounds were dispensed by at 100× the required concentration in DMSO (1 uL/well in a flat bottom 96-well cell culture plate). Each compound was assayed in duplicate for each donor. Each plate contained a dilution series of the TLR7/8 agonist resiquimod as standard and Column 11 contained 1 μL of 200 μM resiquimod (giving a 2 μM final concentration, used to define the approximate maximal response to resiquimod).
(§7) Blood samples from three human donors were collected into sodium heparin (10 U/ml). 25 mL volumes of whole blood were overlaid onto 15 mL Histopaque in Leucosep tubes which were centrifuged at 400 g for 30 min and the band at the plasma/histopaque interface carefully removed into a sterile 50 mL conical tube. The volume in the tube was made up to 50 mL with sterile DPBS (Dulbecco's phosphate buffered saline, —CaCl2/MgCl2) and centrifuged at 300 g for 10 min. The cell pellet was resuspended in 20 mL of media (RPMI 1640 (Low endotoxin) supplemented with 10% v/v foetal calf serum (FCS, low endotoxin) 100 U/mL penicillin G, 100 μg/mL streptomycin, 10 mM L-glutamine and 1× non-essential amino acids), and the cells counted using the Nucleoview 3000 (Chemometec, Via-1 Cassette). The PBMCs concentration was adjusted to give a final concentration of 2×10^6/mL and 100 uL of this cells suspension was added to wells containing 1 μL of diluted test compound.
(§8) The cell preparations were incubated for 24 hr (37° C., 95% air, 5% CO2) after which a sample of the supernatant was removed using the Biomek FX and assayed for both IFN-α and TNF-α using the MSD (Mesoscale Discovery) electrochemiluminescence assay platform. The IFN-α assay was carried out similarly to that described above. The TNF-α assay was carried out as per kit instructions (Cat No K111BHB).
as §4, with “responses” for “responses,”

TNF-α [4] = assay: Induction of TNF-α using fresh human peripheral blood mononuclear cells (PBMCs); settings: PBMC, three donors, 24 hr incubation, response as % of 2 μM resiquimod control, read-out: mean pEC50 for TNF-α (converted)
Protocol: as §5, §6, §7, §8
as §4, with “responses” for “responses,”

| Structure (SMILES) | EC50 (IFN-α [1]) [nM] | EC50 (TNF-α [2]) [µM] | EC50 (IFN-α [3]) [nM] | EC50 (TNF-α [4]) [µM] |
| --- | --- | --- | --- | --- |
| Cc1nc(N)c2[nH]c(C)c(CCCCCCN3CCCCC3)c2n1 [Example 1, 2,6-Dimethyl-7-(6-(piperidin-1-yl)hexyl)-5H-pyrrolo[3,2-d]pyrimidin-4-amine] | ≥ 2000 | ≥ 50.1 | 501 to 3980 | ≥ 50.1 |
| Cc1nc(N)c2[nH]c(C)c(CCCCCN3CCCC3)c2n1 [Example 2, 2,6-Dimethyl-7-(5-(pyrrolidin-1-yl)pentyl)-5H-pyrrolo[3,2-d]pyrimidin-4-amine maleate] | ≥ 2000 | ≥ 50.1 | 501 to 3980 | ≥ 50.1 |
| Cc1nc(N)c2[nH]c(C)c(CCCCCCNCCO)c2n1 [Example 7, 2-((6-(4-Amino-2,6-dimethyl-5H-pyrrolo[3,2-d]pyrimidin-7-yl)hexyl)amino)ethanol] | ≥ 2000 | ≥ 50.1 | 501 to 3980 | ≥ 50.1 |
| Cc1nc(N)c2[nH]c(C)c(CCCCCCN3C[C@H](O)C[C@H](O)C3)c2n1 [Example 8, (3R,5S)-1-(6-(4-amino-2,6-dimethyl-5H-pyrrolo[3,2-d]pyrimidin-7-yl)hexyl)piperidine-3,5-diol] | ≥ 2000 | ≥ 50.1 | 501 to 3980 | ≥ 50.1 |
| Cc1nc(N)c2[nH]c(C)c(CCCCCCN3C[C@H](O)C[C@@H](O)C3)c2n1 [Example 9, (3R,5R)-1-(6-(4-Amino-2,6-dimethyl-5H-pyrrolo[3,2-d]pyrimidin-7-yl)hexyl)piperidine-3,5-diol] | ≥ 2000 | ≥ 50.1 | 501 to 3980 | ≥ 50.1 |
| Cc1nc(N)c2[nH]c(C)c(CCCCCCN(C)C)c2n1 [Example 10, 7-(6-(Dimethylamino)hexyl)-2,6-dimethyl-5H-pyrrolo[3,2-]pyrimidin-4-amine] | ≥ 2000 | ≥ 50.1 | – | – |

Results, then the molecule that gave them:

| EC50 (IFN-α [1]) [nM] | EC50 (TNF-α [2]) [µM] | EC50 (IFN-α [3]) [nM] | EC50 (TNF-α [4]) [µM] | Structure (SMILES) |
| --- | --- | --- | --- | --- |
| ≥ 2000 | ≥ 50.1 | 501 to 3980 | ≥ 50.1 | Cc1nc(N)c2[nH]c(C)c(CCCCCN(CCO)CCO)c2n1 [Example 3, 2,2′-((5-(4-Amino-2,6-dimethyl-5H-pyrrolo[3,2-d]pyrimidin-7-yl)pentyl)azanediyl)diethanol formate] |
| ≥ 2000 | ≥ 50.1 | 501 to 3980 | ≥ 50.1 | Cc1nc(N)c2[nH]c(C)c(CCCCCCN(CCO)CCO)c2n1 [Example 4, 2,2′-((6-(4-Amino-2,6-dimethyl-5H-pyrrolo[3,2-d]pyrimidin-7-yl)hexyl)azanediyl)diethanol formate] |
| ≥ 2000 | ≥ 50.1 | 501 to 3980 | ≥ 50.1 | COCCN(CCO)CCCCCCc1c(C)[nH]c2c(N)nc(C)nc12 [Example 5, 2-((6-(4-Amino-2,6-dimethyl-5H-pyrrolo[3,2-d]pyrimidin-7-yl)hexyl)(2-methoxyethyl)amino)ethanol] |
| ≥ 2000 | ≥ 50.1 | 501 to 3980 | ≥ 50.1 | COCCN(CCCCCCc1c(C)[nH]c2c(N)nc(C)nc12)CCOC [Example 6, 7-(6-(bis(2-Methoxyethyl)amino)hexyl)-2,6-dimethyl-5H-pyrrolo[3,2-d]pyrimidin-4-amine] |
